Test results: patent publication US20230295157A1, “3-(1H-IMIDAZOL-2-YL)-2,3,8,8A-TETRAHYDROINDOLIZIN-5(1H)-ONE DERIVATIVES USEFUL AS FACTOR XIA INHIBITORS” (JANSSEN PHARMACEUTICA NV, priority 2020, published 2023)
Like-named read-outs stand apart in the source and are kept apart here.

Key:
Factor XIa = Factor XIa (Homo sapiens (Human), UniProt P03951); test: Factor XIa inhibition assay (FLINT) utilizing a fluorophore-quencher pair peptide substrate; type: biochemical; conditions: 30 min preincubation, kinetic reads over 30 min, read-out: FXIa Kin Inh IC50
In short: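 FXIa ([…]) preincubated 30 min with compound (11-point 3-fold dilution, top 100 nM, 2% DMSO), then 15 μM quenched FXI Arg146-based peptide added; Tris pH 7.5, CaCl2, BSA, CHAPS. Fluorescence 485/520 nm read kinetically every 5 min over 30 min at RT; IC50 by 4-parameter fit.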

human plasma kallikrein = human plasma kallikrein (Homo sapiens (Human), UniProt P03952); test: Kallikrein inhibition assay (FLINT) utilizing a quenched AMC peptide substrate; type: biochemical; conditions: 30 min preincubation, read-out: Kallikrein Kin Inh IC50
In short: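 Fluorogenic Z-Gly-Pro-Arg-AMC cleavage (50 μM substrate, 2 nM kallikrein, Tris pH 7.5, CaCl2, BSA, CHAPS, 2% DMSO) read kinetically at 340/440 nm for 30 min after 30-min compound pre-incubation. Compounds in 11-point 3-fold series from 1 μM; percent inhibition fitted to four-parameter equation for IC50.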

[1] = 5Fam-KLTRAETV-K5Tamra substrate 15 μM
[2] = kinetic reads over 30 min, Z-Gly-Pro-Arg-AMC substrate 50 μM
[3] = 5Fam-[…]-K5Tamra substrate 15 μM

human plasma kallikrein, sequence (P03952 391-638): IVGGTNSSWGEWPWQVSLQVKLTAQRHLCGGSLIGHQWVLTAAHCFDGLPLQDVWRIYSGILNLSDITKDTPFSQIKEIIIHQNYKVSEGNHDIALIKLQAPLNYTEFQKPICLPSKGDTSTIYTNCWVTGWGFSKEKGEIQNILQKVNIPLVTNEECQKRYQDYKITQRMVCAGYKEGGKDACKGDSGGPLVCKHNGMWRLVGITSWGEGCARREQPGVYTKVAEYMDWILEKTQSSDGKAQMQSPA
human plasma kallikrein, sequence (P03952 20-390 partner): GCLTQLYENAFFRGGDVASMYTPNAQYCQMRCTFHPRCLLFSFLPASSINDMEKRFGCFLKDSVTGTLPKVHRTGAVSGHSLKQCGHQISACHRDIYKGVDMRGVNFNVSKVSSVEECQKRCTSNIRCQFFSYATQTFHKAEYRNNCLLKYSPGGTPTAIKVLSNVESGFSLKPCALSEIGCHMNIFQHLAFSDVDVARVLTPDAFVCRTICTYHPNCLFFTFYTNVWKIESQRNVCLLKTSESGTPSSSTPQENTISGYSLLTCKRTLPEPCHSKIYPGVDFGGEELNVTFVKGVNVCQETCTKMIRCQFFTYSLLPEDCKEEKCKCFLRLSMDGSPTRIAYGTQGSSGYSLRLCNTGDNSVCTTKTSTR
Factor XIa, sequence (P03951 388-625): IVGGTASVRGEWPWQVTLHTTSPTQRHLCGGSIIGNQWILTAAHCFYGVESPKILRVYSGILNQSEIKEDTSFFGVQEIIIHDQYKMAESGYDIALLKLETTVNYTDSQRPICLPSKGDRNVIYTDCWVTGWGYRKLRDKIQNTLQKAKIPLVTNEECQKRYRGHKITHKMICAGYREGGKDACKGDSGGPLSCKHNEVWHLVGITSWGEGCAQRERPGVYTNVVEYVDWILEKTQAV
Factor XIa, sequence (P03951 19-387 partner): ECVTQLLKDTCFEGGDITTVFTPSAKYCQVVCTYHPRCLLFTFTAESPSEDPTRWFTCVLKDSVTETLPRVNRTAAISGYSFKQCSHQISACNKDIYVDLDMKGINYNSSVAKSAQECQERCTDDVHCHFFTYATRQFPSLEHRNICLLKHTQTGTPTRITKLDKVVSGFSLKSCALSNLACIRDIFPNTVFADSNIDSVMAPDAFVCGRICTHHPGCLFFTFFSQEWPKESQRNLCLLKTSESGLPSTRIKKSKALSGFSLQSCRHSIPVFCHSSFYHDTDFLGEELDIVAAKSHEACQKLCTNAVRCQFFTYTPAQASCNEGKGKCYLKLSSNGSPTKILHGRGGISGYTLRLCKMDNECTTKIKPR

Structure (SMILES) | IC50 (Factor XIa; [1]) | IC50 (human plasma kallikrein; [2]) | IC50 (Factor XIa; [3]) | IC50 (human plasma kallikrein; μM, kinetic reads)
NC(=O)c1sc(-c2c[nH]c([C@@H]3CC[C@@H]4CC(c5c(-n6cnnn6)ccc(Cl)c5F)=CC(=O)N43)n2)cc1F [Example 216, 5-(2-((3S,8aR)-7-(3-Chloro-2-fluoro-6-(1H-tetrazol-1-yl)phenyl)-5-oxo-1,2,3,5,8,8a-hexahydroindolizin-3-yl)-1H-imidazol-4-yl)-3-fluorothiophene-2-carboxamide] | 19.6 nM | 0.0274 µM |  | 
C[C@@H](O)c1nccc(-c2[nH]c([C@@H]3CC[C@@H]4CC(c5cc(Cl)ccc5-n5cnnn5)=CC(=O)N43)nc2F)c1F (relative stereo) [Example 45, (3S,8aR)-7-(5-chloro-2-(1H-tetrazol-1-yl)phenyl)-3-(4-fluoro-5-(3-fluoro-2-((R*)-1-hydroxyethyl)pyridin-4-yl)-1H-imidazol-2-yl)-2,3,8,8a-tetrahydroindolizin-5(1H)-one] |  | 0.0413 µM | 4.4 nM | 
O=C1C=C(c2c(-n3cnnn3)ccc(Cl)c2F)C[C@@H]2CC[C@@H](c3ncc(-c4ccnc([C@H](O)C(F)(F)F)c4)[nH]3)N12 (relative stereo) [Example 174, (3S*,8aS*)-7-(3-chloro-2-fluoro-6-(1H-tetrazol-1-yl)phenyl)-3-(5-(2-((S*)-2,2,2-trifluoro-1-hydroxyethyl)pyridin-4-yl)-1H-imidazol-2-yl)-2,3,8,8a-tetrahydroindolizin-5(1H)-one] |  | 0.0259 µM | 18.1 nM | 
O=C1C=C(c2c(-n3cnnn3)ccc(Cl)c2F)C[C@H]2CC[C@H](c3ncc(-c4ccnc(-n5cnnc5)c4F)[nH]3)N12 (relative stereo) [Example 78, (3R*,8aR)-7-(3-chloro-2-fluoro-6-(1H-tetrazol-1-yl)phenyl)-3-(5-(3-fluoro-2-(4H-1,2,4-triazol-4-yl)pyridin-4-yl)-1H-imidazol-2-yl)-2,3,8,8a-tetrahydroindolizin-5(1H)-one] |  | 0.136 µM | 40.9 nM | 
CC1(C)C[C@@H](c2ncc(-c3ccc(N)nc3F)[nH]2)N2C(=O)C=C(c3c(-n4cnnn4)ccc(Cl)c3F)CC21 (stereo partly drawn) [Example 350, (3S)-3-(5-(6-Amino-2-fluoropyridin-3-yl)-1H-imidazol-2-yl)-7-(3-chloro-2-fluoro-6-(1H-tetrazol-1-yl)phenyl)-1,1-dimethyl-2,3,8,8a-tetrahydroindolizin-5(1H)-one] | 1.3 nM | 0.0185 µM |  | 
O=C(O)c1sc(-c2cnc([C@@H]3CC[C@@H]4CC(c5c(-n6cc(C(F)(F)F)nn6)ccc(Cl)c5F)=CC(=O)N43)[nH]2)cc1F (single isomer, unassigned) [Example 195, 5-(2-((3*S,8aR)-7-(3-chloro-2-fluoro-6-(4-(trifluoromethyl)-1H-1,2,3-triazol-1-yl)phenyl)-5-oxo-1,2,3,5,8,8a-hexahydroindolizin-3-yl)-1H-imidazol-yl)-3-fluorothiophene-2-carboxylic acid] | 0.5 nM | 0.0221 µM |  | 
Nc1ccc(-c2cnc([C@@H]3CCC4CC(c5c(-c6ccn[nH]6)ccc(Cl)c5F)=CC(=O)N43)[nH]2)c(F)n1 (stereo partly drawn) [Example 363, (3S)-3-(5-(6-Amino-2-fluoropyridin-3-yl)-1H-imidazol-2-yl)-7-(3-chloro-2-fluoro-6-(1H-pyrazol-5-yl)phenyl)-2,3,8,8a-tetrahydroindolizin-5(1H)-one] | > 100 nM |  |  | > 1 µM
NC(=O)Cc1nccc(-c2cnc([C@@H]3CC[C@@H]4CC(c5c(-n6cc(C(F)(F)F)nn6)ccc(Cl)c5F)=CC(=O)N43)[nH]2)c1F (single isomer, unassigned) [Example 165, 2-(4-(24(3*S,8a*R)-7-(3-chloro-2-fluoro-6-(4-(trifluoromethyl)-1H-1,2,3-triazol-1-yl)phenyl)-5-oxo-1,2,3,5,8,8a-hexahydroindolizin-3-yl)-1H-imidazol-5-yl)-3-fluoropyridin-2-yl)acetamide] | 8 nM | 0.123 µM |  | 
CCOC(=O)Nc1ncccc1-c1c[nH]c([C@@H]2CC[C@@H]3CC(c4c(-n5cnnn5)ccc(Cl)c4F)=CC(=O)N32)n1 [Example 254, Ethyl N-[3-[2-[(3S,8aR)-7-[3-chloro-2-fluoro-6-(tetrazol-1-yl)phenyl]-5-oxo-2,3,8,8a-tetrahydro-1H-indolizin-3-yl]-1H-imidazol-4-yl]-2-pyridyl]carbamate] | 16.7 nM | 0.15 µM |  | 
NC(=O)c1ccc(-c2cnc([C@@H]3CC[C@H]4CC(c5c(-n6cnnn6)ccc(Cl)c5F)=CC(=O)N43)[nH]2)c(Cl)n1 [Example 228, 6-Chloro-5-(2-((3S,8aS)-7-(3-chloro-2-fluoro-6-(1H-tetrazol-1-yl)phenyl)-5-oxo-1,2,3,5,8,8a-hexahydroindolizin-3-yl)-1H-imidazol-5-yl)picolinamide] | 18.8 nM | 0.162 µM |  | 

Continued by falling IC50 (human plasma kallikrein; [2]), values first:

IC50 (Factor XIa; [1]) | IC50 (human plasma kallikrein; [2]) | IC50 (Factor XIa; [3]) | IC50 (human plasma kallikrein; μM, kinetic reads) | Structure (SMILES)
 | 0.0127 µM | 1.5 nM |  | CC1(C)C[C@@H](c2ncc(-c3ccc(N)nc3F)[nH]2)N2C(=O)C=C(c3c(-n4cnnn4)ccc(Cl)c3F)C[C@H]21 (relative stereo) [Example 337, (3S,8aS)-3-(5-(6-Amino-2-fluoropyridin-3-yl)-1H-imidazol-2-yl)-7-(3-chloro-2-fluoro-6-(1H-tetrazol-1-yl)phenyl)-1,1-dimethyl-2,3,8,8a-tetrahydroindolizin-5(1H)-one]
1.2 nM | 0.0094 µM |  |  | CC(C)(O)COc1nccc(-c2c[nH]c([C@@H]3CC[C@@H]4CC(c5c(-n6cnnn6)ccc(Cl)c5F)=CC(=O)N43)n2)c1F [Example 190]
2.3 nM | 0.0077 µM |  |  | NC(=O)c1ccc(-c2c[nH]c([C@@H]3CC[C@H]4CC(c5c(-n6cc(C(F)(F)F)nn6)ccc(Cl)c5F)=CC(=O)N43)n2)s1 (single isomer, unassigned) [Example 221]
2.1 nM | 0.0044 µM |  |  | Cc1nc2ccc(-c3cnc([C@@H]4CC[C@@H]5CC(c6c(-n7cnnn7)ccc(Cl)c6F)=CC(=O)N54)[nH]3)cc2[nH]1 [Example 30, (3S,8aR)-7-(3-chloro-2-fluoro-6-(1H-tetrazol-1-yl)phenyl)-3-(5-(2-methyl-1H-benzo[d]imidazol-6-yl)-1H-imidazol-2-yl)-2,3,8,8a-tetrahydroindolizin-5(1H)-one]
 | 0.0019 µM | 0.7 nM |  | O=C1C=C(c2c(-n3cnnn3)ccc(Cl)c2F)CC2CC[C@@H](c3nc(F)c(-c4ccnc(N[C@H]5CCOC5)c4F)[nH]3)N12 (relative stereo) [Example 76, (3S*)-7-(3-chloro-2-fluoro-6-(1H-tetrazol-1-yl)phenyl)-3-(4-fluoro-5-(3-fluoro-2-(((S)-tetrahydrofuran-3-yl)amino)pyridin-4-yl)-1H-imidazol-2-yl)-2,3,8,8a-tetrahydroindolizin-5(1H)-one]
0.9 nM | 0.0016 µM |  |  | O=C1C=C(c2c(-n3cnnn3)ccc(Cl)c2F)C[C@H]2CC[C@@H](c3nc(F)c(-c4ccnc(-n5nccn5)c4)[nH]3)N12 [Example 87, (3S,8aR)-7-[3-chloro-2-fluoro-6-(tetrazol-1-yl)phenyl]-3-[4-fluoro-5-[2-(triazol-2-yl)-4-pyridyl]-1H-imidazol-2-yl]-2,3,8,8a-tetrahydro-1H-indolizin-5-one]
